According to the supplement of paper PMC10307832:

Tests used:
Test in all cases: relative viability (nuclei count vs DMSO), 5 days (fraction); higher = more cells survive
CAP-232 + Olaparib = compound: C[C@H]([C@@H](C(=O)N)NC(=O)[C@@H]1CSSC[C@@H](C(=O)N[C@H](C(=O)N[C@@H](C(=O)N[C@H](C(=O)N1)CCCCN)CC2=CNC3=CC=CC=C32)CC4=CC=C(C=C4)O)NC(=O)[C@@H](CC5=CC=CC=C5)N)O [CAP-232] + O=C(c1cc(Cc2n[nH]c(=O)c3ccccc23)ccc1F)N1CCN(C(=O)C2CC2)CC1 [Olaparib] (partner 8 µM)
Summary of the method: (§1)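 For relative viability, nuclei counts in treated wells were divided by those in vehicle wells. Lung cancer cell lines had been pin-tool dosed in 1536-well plates the day after seeding and cultured for 5 days, then fixed and stained in one step (final 0.05% Triton X-100, 1% formaldehyde, 1 ug/ml Hoechst) and imaged at 4×. Doses were one drug alone or a fixed anchor-drug dose plus five library-drug doses (not always all listed) in √10 steps, and values are duplicate-plate medians.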

CAP-232 + Pemetrexed = compound: C[C@H]([C@@H](C(=O)N)NC(=O)[C@@H]1CSSC[C@@H](C(=O)N[C@H](C(=O)N[C@@H](C(=O)N[C@H](C(=O)N1)CCCCN)CC2=CNC3=CC=CC=C32)CC4=CC=C(C=C4)O)NC(=O)[C@@H](CC5=CC=CC=C5)N)O [CAP-232] + Nc1nc2[nH]cc(CCc3ccc(C(=O)N[C@@H](CCC(=O)O)C(=O)O)cc3)c2c(=O)[nH]1 [Pemetrexed] (partner 0.2 µM)
Summary of the method: as §1

CAP-232 + Crizotinib = compound: C[C@H]([C@@H](C(=O)N)NC(=O)[C@@H]1CSSC[C@@H](C(=O)N[C@H](C(=O)N[C@@H](C(=O)N[C@H](C(=O)N1)CCCCN)CC2=CNC3=CC=CC=C32)CC4=CC=C(C=C4)O)NC(=O)[C@@H](CC5=CC=CC=C5)N)O [CAP-232] + C[C@@H](Oc1cc(-c2cnn(C3CCNCC3)c2)cnc1N)c1c(Cl)ccc(F)c1Cl [Crizotinib] (partner 1 µM)
Summary of the method: as §1

CAP-232 + Linsitinib = compound: C[C@H]([C@@H](C(=O)N)NC(=O)[C@@H]1CSSC[C@@H](C(=O)N[C@H](C(=O)N[C@@H](C(=O)N[C@H](C(=O)N1)CCCCN)CC2=CNC3=CC=CC=C32)CC4=CC=C(C=C4)O)NC(=O)[C@@H](CC5=CC=CC=C5)N)O [CAP-232] + C[C@]1(O)C[C@@H](c2nc(-c3ccc4ccc(-c5ccccc5)nc4c3)c3c(N)nccn32)C1 [Linsitinib] (partner 1 µM)
Summary of the method: as §1

CAP-232 + Trametinib = compound: C[C@H]([C@@H](C(=O)N)NC(=O)[C@@H]1CSSC[C@@H](C(=O)N[C@H](C(=O)N[C@@H](C(=O)N[C@H](C(=O)N1)CCCCN)CC2=CNC3=CC=CC=C32)CC4=CC=C(C=C4)O)NC(=O)[C@@H](CC5=CC=CC=C5)N)O [CAP-232] + CC(=O)Nc1cccc(-n2c(=O)n(C3CC3)c(=O)c3c(Nc4ccc(I)cc4F)n(C)c(=O)c(C)c32)c1 [Trametinib] (partner 0.02 µM)
Summary of the method: as §1

NCI-H2023 was tested, and the relative viability (CAP-232 + Olaparib; first compound 0.4 µM) was 0.485, the relative viability (CAP-232 + Olaparib; first compound 1.265 µM) was 0.498 and the relative viability (CAP-232 + Olaparib; first compound 4 µM) was 0.497. The relative viability (CAP-232 + Olaparib; first compound 12.65 µM) was 0.326, the relative viability (CAP-232 + Pemetrexed; first compound 0.4 µM) was 0.246 and the relative viability (CAP-232 + Pemetrexed; first compound 1.265 µM) was 0.257. It also gave a relative viability (CAP-232 + Pemetrexed; first compound 4 µM) of 0.178, a relative viability (CAP-232 + Pemetrexed; first compound 12.65 µM) of 0.0965 and a relative viability (CAP-232 + Crizotinib; first compound 0.4 µM) of 0.837. It also gave a relative viability (CAP-232 + Crizotinib; first compound 1.265 µM) of 0.548, a relative viability (CAP-232 + Crizotinib; first compound 4 µM) of 0.693 and a relative viability (CAP-232 + Crizotinib; first compound 12.65 µM) of 0.292. The relative viability (CAP-232 + Linsitinib; first compound 0.4 µM) was 0.659, the relative viability (CAP-232 + Linsitinib; first compound 1.265 µM) was 0.615 and the relative viability (CAP-232 + Linsitinib; first compound 4 µM) was 0.697. For the same cell line, the relative viability (CAP-232 + Linsitinib; first compound 12.65 µM) was 0.249, the relative viability (CAP-232 + Trametinib; first compound 0.4 µM) was 0.656 and the relative viability (CAP-232 + Trametinib; first compound 1.265 µM) was 0.555. For the same cell line, the relative viability (CAP-232 + Trametinib; first compound 4 µM) was 0.48 and the relative viability (CAP-232 + Trametinib; first compound 12.65 µM) was 0.205.

For NCI-H2085, the relative viability (CAP-232 + Olaparib; first compound 0.4 µM) was 0.825, the relative viability (CAP-232 + Olaparib; first compound 1.265 µM) was 0.764 and the relative viability (CAP-232 + Olaparib; first compound 4 µM) was 0.743. For the same cell line, the relative viability (CAP-232 + Olaparib; first compound 12.65 µM) was 0.771, the relative viability (CAP-232 + Pemetrexed; first compound 0.4 µM) was 0.941 and the relative viability (CAP-232 + Pemetrexed; first compound 1.265 µM) was 0.796. It also gave a relative viability (CAP-232 + Pemetrexed; first compound 4 µM) of 0.899, a relative viability (CAP-232 + Pemetrexed; first compound 12.65 µM) of 0.918 and a relative viability (CAP-232 + Crizotinib; first compound 0.4 µM) of 0.728. For the same cell line, the relative viability (CAP-232 + Crizotinib; first compound 1.265 µM) was 0.882, the relative viability (CAP-232 + Crizotinib; first compound 4 µM) was 0.821 and the relative viability (CAP-232 + Crizotinib; first compound 12.65 µM) was 0.853. For the same cell line, the relative viability (CAP-232 + Linsitinib; first compound 0.4 µM) was 0.816, the relative viability (CAP-232 + Linsitinib; first compound 1.265 µM) was 1.04 and the relative viability (CAP-232 + Linsitinib; first compound 4 µM) was 0.955. The relative viability (CAP-232 + Linsitinib; first compound 12.65 µM) was 0.843, the relative viability (CAP-232 + Trametinib; first compound 0.4 µM) was 0.514 and the relative viability (CAP-232 + Trametinib; first compound 1.265 µM) was 0.586. It also gave a relative viability (CAP-232 + Trametinib; first compound 4 µM) of 0.532 and a relative viability (CAP-232 + Trametinib; first compound 12.65 µM) of 0.569.

For NCI-H2087, the relative viability (CAP-232 + Olaparib; first compound 0.4 µM) was 0.646, the relative viability (CAP-232 + Olaparib; first compound 1.265 µM) was 0.669 and the relative viability (CAP-232 + Olaparib; first compound 4 µM) was 0.697. For the same cell line, the relative viability (CAP-232 + Olaparib; first compound 12.65 µM) was 0.312, the relative viability (CAP-232 + Pemetrexed; first compound 0.4 µM) was 0.662 and the relative viability (CAP-232 + Pemetrexed; first compound 1.265 µM) was 0.655. For the same cell line, the relative viability (CAP-232 + Pemetrexed; first compound 4 µM) was 0.68, the relative viability (CAP-232 + Pemetrexed; first compound 12.65 µM) was 0.604 and the relative viability (CAP-232 + Crizotinib; first compound 0.4 µM) was 0.929. For the same cell line, the relative viability (CAP-232 + Crizotinib; first compound 1.265 µM) was 0.809, the relative viability (CAP-232 + Crizotinib; first compound 4 µM) was 0.967 and the relative viability (CAP-232 + Crizotinib; first compound 12.65 µM) was 0.819. The relative viability (CAP-232 + Linsitinib; first compound 0.4 µM) was 0.894, the relative viability (CAP-232 + Linsitinib; first compound 1.265 µM) was 0.955 and the relative viability (CAP-232 + Linsitinib; first compound 4 µM) was 0.924. The relative viability (CAP-232 + Linsitinib; first compound 12.65 µM) was 0.541, the relative viability (CAP-232 + Trametinib; first compound 0.4 µM) was 0.188 and the relative viability (CAP-232 + Trametinib; first compound 1.265 µM) was 0.228. For the same cell line, the relative viability (CAP-232 + Trametinib; first compound 4 µM) was 0.201 and the relative viability (CAP-232 + Trametinib; first compound 12.65 µM) was 0.205.

NCI-H2126 was tested, and the relative viability (CAP-232 + Olaparib; first compound 0.4 µM) was 0.899, the relative viability (CAP-232 + Olaparib; first compound 1.265 µM) was 0.866 and the relative viability (CAP-232 + Olaparib; first compound 4 µM) was 0.992. The relative viability (CAP-232 + Olaparib; first compound 12.65 µM) was 0.914, the relative viability (CAP-232 + Pemetrexed; first compound 0.4 µM) was 0.703 and the relative viability (CAP-232 + Pemetrexed; first compound 1.265 µM) was 0.696. The relative viability (CAP-232 + Pemetrexed; first compound 4 µM) was 0.706, the relative viability (CAP-232 + Pemetrexed; first compound 12.65 µM) was 0.654 and the relative viability (CAP-232 + Crizotinib; first compound 0.4 µM) was 1.06. For the same cell line, the relative viability (CAP-232 + Crizotinib; first compound 1.265 µM) was 1.03, the relative viability (CAP-232 + Crizotinib; first compound 4 µM) was 1.13 and the relative viability (CAP-232 + Crizotinib; first compound 12.65 µM) was 1.09. The relative viability (CAP-232 + Linsitinib; first compound 0.4 µM) was 0.722, the relative viability (CAP-232 + Linsitinib; first compound 1.265 µM) was 0.709 and the relative viability (CAP-232 + Linsitinib; first compound 4 µM) was 0.736. For the same cell line, the relative viability (CAP-232 + Linsitinib; first compound 12.65 µM) was 0.74, the relative viability (CAP-232 + Trametinib; first compound 0.4 µM) was 0.622 and the relative viability (CAP-232 + Trametinib; first compound 1.265 µM) was 0.523. The relative viability (CAP-232 + Trametinib; first compound 4 µM) was 0.561 and the relative viability (CAP-232 + Trametinib; first compound 12.65 µM) was 0.602.

For NCI-H2228, the relative viability (CAP-232 + Olaparib; first compound 0.4 µM) was 0.766, the relative viability (CAP-232 + Olaparib; first compound 1.265 µM) was 0.73 and the relative viability (CAP-232 + Olaparib; first compound 4 µM) was 0.92. For the same cell line, the relative viability (CAP-232 + Olaparib; first compound 12.65 µM) was 0.361, the relative viability (CAP-232 + Pemetrexed; first compound 0.4 µM) was 0.447 and the relative viability (CAP-232 + Pemetrexed; first compound 1.265 µM) was 0.364. For the same cell line, the relative viability (CAP-232 + Pemetrexed; first compound 4 µM) was 0.335, the relative viability (CAP-232 + Pemetrexed; first compound 12.65 µM) was 0.358 and the relative viability (CAP-232 + Crizotinib; first compound 0.4 µM) was 0.637. The relative viability (CAP-232 + Crizotinib; first compound 1.265 µM) was 0.407, the relative viability (CAP-232 + Crizotinib; first compound 4 µM) was 0.526 and the relative viability (CAP-232 + Crizotinib; first compound 12.65 µM) was 0.461. It also gave a relative viability (CAP-232 + Linsitinib; first compound 0.4 µM) of 0.596, a relative viability (CAP-232 + Linsitinib; first compound 1.265 µM) of 0.581 and a relative viability (CAP-232 + Linsitinib; first compound 4 µM) of 0.521. It also gave a relative viability (CAP-232 + Linsitinib; first compound 12.65 µM) of 0.646, a relative viability (CAP-232 + Trametinib; first compound 0.4 µM) of 0.473 and a relative viability (CAP-232 + Trametinib; first compound 1.265 µM) of 0.523. For the same cell line, the relative viability (CAP-232 + Trametinib; first compound 4 µM) was 0.715 and the relative viability (CAP-232 + Trametinib; first compound 12.65 µM) was 0.414.
